Data published in ChEMBL document CHEMBL4414660, “Effect of Modifier Structure on the Activation of Leukotriene A4 Hydrolase Aminopeptidase Activity” (J Med Chem, 2019).
Calls of active or inactive are those of the source. The calls are words filed in the database; no cut-off is given here.

Assays:
[1] = target: T1, Leukotriene A-4 hydrolase (Homo sapiens) (UniProt P09960); experiment: (§1) Activation of N-terminal (His)6 and Xpress-tagged LTA4H (unknown origin) expressed in Escherichia coli BL21(DE3) cells assessed as increase in aminopeptidase activity by measuring factor by which activator affects catalytic constant for hyperbolic mixed predominantly catalytic activation using L-Alanine-p-nitroanilide incubated for 10 mins by p-nitroanilide release detection based UV plate reader based assay
T1 sequence (whole entry): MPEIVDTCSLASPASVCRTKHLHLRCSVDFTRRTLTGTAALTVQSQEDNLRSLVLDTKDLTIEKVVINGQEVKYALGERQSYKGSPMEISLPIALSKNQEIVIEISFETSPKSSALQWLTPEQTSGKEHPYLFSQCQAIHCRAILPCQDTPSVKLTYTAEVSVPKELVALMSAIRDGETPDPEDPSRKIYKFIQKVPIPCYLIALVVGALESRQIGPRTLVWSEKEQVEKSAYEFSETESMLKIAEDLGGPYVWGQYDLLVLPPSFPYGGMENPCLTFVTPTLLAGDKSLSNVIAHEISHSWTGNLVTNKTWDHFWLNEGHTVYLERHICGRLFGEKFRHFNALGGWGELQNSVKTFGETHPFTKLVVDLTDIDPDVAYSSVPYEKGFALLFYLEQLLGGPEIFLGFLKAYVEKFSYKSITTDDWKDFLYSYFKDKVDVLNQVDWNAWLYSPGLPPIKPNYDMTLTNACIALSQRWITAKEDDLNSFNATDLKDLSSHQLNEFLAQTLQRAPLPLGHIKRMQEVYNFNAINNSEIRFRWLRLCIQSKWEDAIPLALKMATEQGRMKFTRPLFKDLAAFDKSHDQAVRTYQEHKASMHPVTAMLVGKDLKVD

[2] = target: T2, Leukotriene A-4 hydrolase (Homo sapiens, UniProt P09960); experiment: Activation of N-terminal (His)6 and Xpress-tagged LTA4H (unknown origin) expressed in Escherichia coli BL21(DE3) cells assessed as increase in aminopeptidase activity by measuring p-nitroanilide release using L-Alanine-p-nitroanilide incubated for 10 mins by UV plate reader based assay
T2 sequence (P09960 whole entry): T1 sequence (whole entry)

[3] = target: T1, Leukotriene A-4 hydrolase (Homo sapiens); experiment: as §1, with “dissociation” for “factor by which activator affects catalytic”, “constant (KX)” for “constant”
[4] = target: T1, Leukotriene A-4 hydrolase (Homo sapiens); experiment: as §1, with “reciprocal allosteric coupling” for “factor by which activator affects catalytic”
Neutrophil = experiment: Inhibition of LTB4 production in A23187-stimulated human neutrophils at 0.001 to 1000 microM incubated for 30 mins by ELISA; assay type: functional, cell-based
[5] = target: T1, Leukotriene A-4 hydrolase (Homo sapiens); experiment: (§2) Inhibition of N-terminal (His)6 and Xpress-tagged LTA4H (unknown origin) expressed in Escherichia coli BL21(DE3) cells assessed as reduction in aminopeptidase activity by measuring p-nitroanilide release using L-arginine-p-nitroanilide incubated for 10 mins by UV plate reader based assay
[6] = target: T2, Leukotriene A-4 hydrolase; experiment: as §2
[7] = target: T1, Leukotriene A-4 hydrolase (Homo sapiens); experiment: Inhibition of N-terminal (His)6 and Xpress-tagged LTA4H (unknown origin) expressed in Escherichia coli BL21(DE3) cells assessed as reduction in aminopeptidase activity by measuring PGP hydrolysis incubated for 30 mins

| SMILES | fold change (FC) [1] | AC50 [2] [µM] | K [3] [µM] | K [4] | inhibition (Neutrophil) | inhibition [5] | IC50 [6] [µM] | inhibition [7] |
| --- | --- | --- | --- | --- | --- | --- | --- | --- |
| Cc1ccc(Cc2ccc(-c3csc(N)n3)cc2)cc1 | 18.7 | 0.083 | 0.1 | 1.64 | – | – | – | – |
| Cc1ccccc1Cc1ccc(-c2csc(N)n2)cc1 | – | 6.62 | – | – | – | – | – | – |
| CC(C)C[C@H](NC(=O)[C@@H](O)[C@H](N)Cc1ccccc1)C(=O)O | – | – | – | – | Active | – | – | – |
| Nc1nc(-c2ccc(Cc3ccc(C(F)(F)F)cc3)cc2)cs1 | 21.4 | 1.39 | 9.6 | 9.51 | – | – | – | – |
| COc1cccc(Cc2ccc(-c3csc(N)n3)cc2)c1 | – | 5.92 | – | – | – | – | – | – |
| COc1ccc(Cc2ccc(-c3csc(N)n3)cc2)cc1 | 26.4 | 0.21 | 0.05 | 4.34 | Dose-dependent effect | Dose-dependent effect | 13.9 | Dose-dependent effect |
